Results published in US20220249404A1 (Nanjing Ruiying Runze Biopharmaceutical Technology Co., Inc., priority 2019, published 2022).
Read-outs that look alike come from different tables or passages of the source.

Key:
[1] = tested on: normal human skin melanocytes; conditions: cited from earlier work
normal mice = conditions: oral administration, 20 mg/kg; cited from earlier work
zebrafish [2] = test: survival rate of zebrafish (PTU35h embryos, drugs alone or in combination); conditions: for effect on survival rate of zebrafish: used alone; for IC50: Danio rerio, 25 h, read-out: IC50 (survival rate of zebrafish)
zebrafish [3] = test: melanin content / effective rate on melanogenesis in zebrafish (NaOH lysis method); assay type: in vivo; conditions: for efficacy of Flu (%): calculated using Formula 1; for efficacy of Cal (%): calculated using Formula 3
[4] = long term oral administration, 20 mg/day; cited from earlier work
B16F10 cells = conditions: cited from earlier work
tyrosinase = tyrosinase activity of zebrafish (L-DOPA oxidation method); assay type: in vivo
C57BL/6 mice = conditions: oral administration, 2.6 mg/kg, stress-induced; cited from earlier work
normal melanocytes = conditions: 10^−9-10^−5 mol/L; cited from earlier work
zebrafish [5] = conditions: in vivo
[6] = 0.2 mM PTU35h treatment group compared with normal control group
[7] = 0.005-1.28 μg/ml, compared with PTU35h treatment group

## CNCCC(Oc1ccc(C(F)(F)F)cc1)c1ccccc1 (racemic) [fluoxetine]
[1]
  melanin of normal human skin melanocytes: can promote
Normal mice
  skin coloring: can promote skin coloring
Zebrafish [2]; 100 μg/ml
  effect on survival rate of zebrafish: significantly inhibited
Zebrafish [3]; 6.4-25.6 μg/ml, compared with PTU35h treatment group
  melanin content in zebrafish: increase the melanin content in zebrafish in a dose-dependent manner
Zebrafish [3]; Flu alone 0.1 μg/ml
  effective rate (%) on melanogenesis in zebrafish: 4.962%
Zebrafish [3]; Flu alone 0.1 μg/ml, listed as Flu
  effective rate (%) on melanogenesis in zebrafish: 4.5%
Zebrafish [3]; Flu alone 0.4 μg/ml
  effective rate (%) on melanogenesis in zebrafish: 6.564%
Zebrafish [3]; Flu alone 1.6 μg/ml
  effective rate (%) on melanogenesis in zebrafish: 10.260%
Zebrafish [3]; Flu alone 1.6 μg/ml, listed as Flu
  effective rate (%) on melanogenesis in zebrafish: 10.26%
Zebrafish [3]; Flu alone 6.4 μg/ml
  effective rate (%) on melanogenesis in zebrafish: 25.804%
Zebrafish [3]; Flu alone 25.6 μg/ml
  effective rate (%) on melanogenesis in zebrafish: 26.536%
Zebrafish [3]; listed as Flu 0.1 μg/ml
  efficacy of Flu (%): 3.151%
Zebrafish [3]; listed as Flu 0.4 μg/ml
  efficacy of Flu (%): 3.218%
Zebrafish [3]; listed as Flu 1.6 μg/ml
  efficacy of Flu (%): 3.486%
Zebrafish [3]; listed as Flu 6.4 μg/ml
  efficacy of Flu (%): 4.547%
Zebrafish [3]; listed as Flu 25.6 μg/ml
  efficacy of Flu (%): 8.629%
[4]
  side effects: may cause side effects, such as insomnia, lethargy, suicide, neurological disorders
B16F10 cells
  synthesis (melanin) of B16F10 cells: can promote
tyrosinase; 1.6-25.6 μg/ml, compared with PTU35h treatment group
  tyrosinase activity of zebrafish: increase the tyrosinase activity of zebrafish in a dose-dependent manner
C57BL/6 mice
  skin discoloration of unhaired back: can improve skin discoloration

## NC(=S)Nc1ccccc1 [PTU, 1-phenyl-2-thiourea]
Zebrafish [3]; [6]
  melanin content in zebrafish: decreased significantly
tyrosinase; [6]
  tyrosinase activity of zebrafish: decreased significantly

## C=C1CC[C@H](O)C/C1=C/C=C1\CCC[C@]2(C)[C@@H]([C@H](C)CCCC(C)C)CC[C@@H]12 [VD3, vitamin D3]
Zebrafish [2]; 5 μg/ml
  effect on survival rate of zebrafish: significantly inhibited
Zebrafish [3]; VD3 0.02 μg/ml, calculated using Formula 2
  efficacy of VD3 (%): 3.72%
Zebrafish [3]; VD3 0.08 μg/ml, calculated using Formula 2
  efficacy of VD3 (%): 5.41%
Zebrafish [3]; VD3 0.32 μg/ml, calculated using Formula 2
  efficacy of VD3 (%): 11.07%
Zebrafish [3]; VD3 1.28 μg/ml, calculated using Formula 2
  efficacy of VD3 (%): 15.74%
Zebrafish [3]; used alone 0.02 μg/ml
  effective rate (%) on melanogenesis in zebrafish: 5.564%
Zebrafish [3]; used alone 0.08 μg/ml
  effective rate (%) on melanogenesis in zebrafish: 7.337%
Zebrafish [3]; used alone 0.32 μg/ml
  effective rate (%) on melanogenesis in zebrafish: 10.315%
Zebrafish [3]; used alone 1.28 μg/ml
  effective rate (%) on melanogenesis in zebrafish: 15.775%
Zebrafish [3]; zebrafish, in vivo
  effective rate (%) on melanogenesis in zebrafish: 3.346%
  efficacy of VD3 (%): 3.28%
  melanin content in zebrafish: no significant difference
tyrosinase; [7]
  tyrosinase activity of zebrafish: no significant effect

## C=C1/C(=C\C=C2/CCC[C@]3(C)[C@@H]([C@H](C)/C=C/[C@@H](O)C4CC4)CC[C@@H]23)C[C@@H](O)C[C@@H]1O [calcipotriol]
Zebrafish [2]; 5 μg/ml
  effect on survival rate of zebrafish: significantly inhibited
Zebrafish [2]
  IC50: 3.5 µg/mL
Normal melanocytes
  melanogenesis of normal melanocytes: can promote melanogenesis
Zebrafish [3]; Cal 0.005 μg/ml
  efficacy of Cal (%): 3.42%
Zebrafish [3]; Cal 0.02 μg/ml
  efficacy of Cal (%): 3.85%
Zebrafish [3]; Cal 0.08 μg/ml
  efficacy of Cal (%): 5.50%
Zebrafish [3]; Cal 0.32 μg/ml
  efficacy of Cal (%): 10.77%
Zebrafish [3]; Cal 1.28 μg/ml
  efficacy of Cal (%): 11.17%
Zebrafish [3]; used alone 0.005 μg/ml
  effective rate (%) on melanogenesis in zebrafish: 4.296%
Zebrafish [3]; used alone 0.02 μg/ml
  effective rate (%) on melanogenesis in zebrafish: 5.509%
Zebrafish [3]; used alone 0.08 μg/ml
  effective rate (%) on melanogenesis in zebrafish: 6.773%
Zebrafish [3]; used alone 0.32 μg/ml
  effective rate (%) on melanogenesis in zebrafish: 10.214%
Zebrafish [3]; used alone 1.28 μg/ml
  effective rate (%) on melanogenesis in zebrafish: 11.197%
tyrosinase; [7]
  tyrosinase activity of zebrafish: no significant effect

## C=C1/C(=C\C=C2/CCC[C@]3(C)[C@@H]([C@H](C)CC[C@@H](O)C(C)C)CC[C@@H]23)C[C@@H](O)C[C@@H]1O [tacalcitol]
Zebrafish [5]
  effect on survival rate of zebrafish: significantly inhibited
Zebrafish [2]
  IC50: 4 µg/mL
